A value given as a limit tells only on which side of the number the result lay.

In assay [1] the target is mouse cold-menthol receptor TRPM8 (Mus musculus, UniProt Q8R4D5). The note with it: described by Behrendt et al.; cited from earlier work.
Assay [2] has as its target T1, TRPM8 (Homo sapiens, UniProt Q7Z2W7).
T1 construct: purchased Eurofins (Cerep) item #3316
The experiment in a line: TRPM8 Human Transient Potential Ion Channel Cell Based Agonist Calcium Flux Assay (Eurofins Cerep item #3316). The note with it: for Emax / Percent Agonist: control activator ligand icilin; for Emax: read-out: Percent Agonist; for EC50: room temperature. An excerpt:
Compounds can be tested using the commercially available kit from Eurofins “TRPM8 Human Transient Potential Ion Channel Cell Based Agonist Calcium Flux Assay, Cerep” item #3316, or using the assay, referenced by Eurofins, and described in Behrendt et al. “Characterization of the mouse cold-menthol receptor TRPM8 and vanilloid receptor type-1 VR1 using a fluorometric imaging plate reader (FLIPR) assay,” Br J Pharmacol. 2004 Feb;141(4):737-45, which are each incorporated herein by reference. […] 4.
The assay is done at room temperature and measures calcium flux.

T1 sequence (Q7Z2W7 whole entry): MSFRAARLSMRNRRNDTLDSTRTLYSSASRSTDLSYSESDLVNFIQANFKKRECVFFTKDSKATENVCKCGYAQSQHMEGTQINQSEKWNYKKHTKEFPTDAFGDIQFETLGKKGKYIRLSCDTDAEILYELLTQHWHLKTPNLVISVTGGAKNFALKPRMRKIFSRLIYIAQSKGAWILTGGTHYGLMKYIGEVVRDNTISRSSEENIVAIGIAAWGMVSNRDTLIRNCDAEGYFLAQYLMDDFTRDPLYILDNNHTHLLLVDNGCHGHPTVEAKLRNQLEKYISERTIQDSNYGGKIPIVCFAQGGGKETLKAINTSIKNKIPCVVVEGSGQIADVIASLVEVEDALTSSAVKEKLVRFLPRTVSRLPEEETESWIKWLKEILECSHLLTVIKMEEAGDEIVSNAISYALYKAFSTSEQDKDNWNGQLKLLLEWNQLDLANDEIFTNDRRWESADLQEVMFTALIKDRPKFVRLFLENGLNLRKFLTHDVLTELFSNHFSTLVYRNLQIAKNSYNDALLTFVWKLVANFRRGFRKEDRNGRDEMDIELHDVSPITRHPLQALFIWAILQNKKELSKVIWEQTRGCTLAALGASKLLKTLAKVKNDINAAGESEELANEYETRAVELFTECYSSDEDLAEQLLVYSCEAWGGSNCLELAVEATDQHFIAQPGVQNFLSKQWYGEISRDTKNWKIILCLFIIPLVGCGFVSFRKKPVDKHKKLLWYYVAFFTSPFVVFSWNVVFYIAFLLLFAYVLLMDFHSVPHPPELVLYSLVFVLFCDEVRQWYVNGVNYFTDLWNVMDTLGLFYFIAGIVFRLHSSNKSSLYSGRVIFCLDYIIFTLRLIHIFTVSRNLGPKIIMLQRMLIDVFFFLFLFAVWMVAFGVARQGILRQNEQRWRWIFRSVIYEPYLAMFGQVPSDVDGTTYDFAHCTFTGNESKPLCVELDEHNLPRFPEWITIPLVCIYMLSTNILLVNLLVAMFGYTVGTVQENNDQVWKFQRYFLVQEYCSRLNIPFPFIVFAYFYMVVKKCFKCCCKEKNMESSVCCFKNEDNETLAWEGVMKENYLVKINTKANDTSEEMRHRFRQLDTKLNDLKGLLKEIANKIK
Chain of mouse cold-menthol receptor TRPM8 (Q8R4D5 whole entry): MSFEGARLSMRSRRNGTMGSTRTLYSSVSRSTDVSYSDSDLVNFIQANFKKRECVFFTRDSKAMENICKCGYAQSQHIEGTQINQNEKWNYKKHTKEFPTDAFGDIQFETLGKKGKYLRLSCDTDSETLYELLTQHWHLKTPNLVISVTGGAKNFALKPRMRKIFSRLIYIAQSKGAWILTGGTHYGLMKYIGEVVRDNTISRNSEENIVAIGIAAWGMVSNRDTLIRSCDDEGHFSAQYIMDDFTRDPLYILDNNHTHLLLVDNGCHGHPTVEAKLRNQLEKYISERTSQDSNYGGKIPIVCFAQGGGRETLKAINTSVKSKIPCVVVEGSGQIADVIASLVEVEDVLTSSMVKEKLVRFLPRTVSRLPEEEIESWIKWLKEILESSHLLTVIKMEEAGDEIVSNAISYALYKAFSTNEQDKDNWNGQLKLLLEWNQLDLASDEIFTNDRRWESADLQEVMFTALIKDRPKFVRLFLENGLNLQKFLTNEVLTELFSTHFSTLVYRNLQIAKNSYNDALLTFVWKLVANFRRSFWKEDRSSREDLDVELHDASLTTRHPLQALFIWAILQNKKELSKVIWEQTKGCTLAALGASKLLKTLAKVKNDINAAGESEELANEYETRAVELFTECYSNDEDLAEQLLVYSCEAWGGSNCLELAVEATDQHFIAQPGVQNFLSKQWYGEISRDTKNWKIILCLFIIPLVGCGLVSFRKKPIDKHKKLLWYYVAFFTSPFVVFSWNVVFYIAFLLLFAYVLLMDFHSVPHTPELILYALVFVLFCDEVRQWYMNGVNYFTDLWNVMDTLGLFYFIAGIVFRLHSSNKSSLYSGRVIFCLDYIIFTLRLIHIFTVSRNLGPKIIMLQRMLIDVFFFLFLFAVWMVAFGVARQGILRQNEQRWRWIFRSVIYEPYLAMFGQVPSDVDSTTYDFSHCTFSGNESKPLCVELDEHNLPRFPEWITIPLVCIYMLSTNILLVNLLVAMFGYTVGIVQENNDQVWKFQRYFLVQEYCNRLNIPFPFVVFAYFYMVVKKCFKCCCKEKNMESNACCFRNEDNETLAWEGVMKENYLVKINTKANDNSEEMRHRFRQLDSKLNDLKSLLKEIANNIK

`CC(C)[C@@H]1CC[C@@H](C)C[C@H]1O` [(−)menthol]: in assay [1], the concentration for a half-maximal effect (EC50) (usually the midpoint of the concentration-response curve) was 4.1 ± 1.3 µM.

Regarding `CNC(=O)C(C)(C(C)C)C(C)C` [WS-23], the EC50 in assay [1] is 44 ± 7.3 µM.

Turning to `CC(C)=CCC/C(C)=C/CO` [geraniol], in assay [1], the concentration for a half-maximal effect (EC50) is 5900 ± 1600 µM.

With `C=CC(C)(O)CCC=C(C)C` (centres unmarked) [linalool], the EC50 in assay [1] is 6700 ± 2000 µM.

For `C#CCNC(=O)[C@@H]1C[C@H](C)CC[C@H]1C(C)C` [Compound 101], in assay [2], the Emax was above 75% and the concentration for a half-maximal effect (EC50) is below 5 µM.

Consider `CC(C)[C@H]1CC[C@H](C)C[C@@H]1O` [(+)menthol], for which the half-maximal effective concentration (EC50) in assay [1] is 14.4 ± 1.3 µM.

With `COCCN1CC(NC(=O)[C@@H]2C[C@H](C)CC[C@H]2C(C)C)C1` [Compound 26], in assay [2], the Emax is above 75% and the concentration for a half-maximal effect (EC50) was below 1 µM.

As to `CC(C)[C@@H]1CC[C@@H](C)C[C@H]1C(=O)Nc1ccc(B2OC(C)(C)C(C)(C)O2)cn1` [Compound 79], in assay [2], the Emax was above 75% and the EC50 is below 2 µM.

As to `COc1ccc(CNC(=O)[C@@H]2C[C@H](C)CC[C@H]2C(C)C)cc1` [Compound 10], in assay [2], the Emax was above 75% and the EC50 was below 5 µM.

Regarding `COC12CCC(NC(=O)c3cc(Cl)ccc3C(C)C)(CC1)CC2` [Compound 172], in assay [2], the Emax was above 100% and the EC50 was below 3 µM.

Take `CC(C)[C@@H]1CC[C@@H](C)C[C@H]1C(=O)NC1CC2C(C1)C2(F)F` (some centres unmarked) [102 or 92]: in assay [2], the “Percent Agonist” value is above 75% and the concentration giving a half-maximal response (EC50) is below 0.5 µM.

On to `COC(=O)C12CCC(NC(=O)[C@@H]3C[C@H](C)CC[C@H]3C(C)C)(CC1)CC2` [Compound 57], for which, in assay [2], the Emax is above 75% and the EC50 was below 1 µM.

Consider `COC12CC(NC(=O)[C@@H]3C[C@H](C)CC[C@H]3C(C)C)(C1)C2` [Compound 25], for which, in assay [2], the Emax is above 75% and the EC50 is below 0.1 µM.

Take `CC(C)[C@@H]1CC[C@@H](C)C[C@H]1C(=O)Nc1ccc(C2(CCO)COC2)cc1` [Compound 20]: in assay [2], the Emax was above 100% and the EC50 was below 0.5 µM.

For the compound `CCNC(=O)C1CC(C)CCC1C(C)C` (centres unmarked) [WS-3], in assay [1], the EC50 is 3.7 ± 1.7 µM.

Take `CC(C)[C@@H]1CC[C@@H](C)C[C@H]1C(=O)N1CC(C)(CC(F)F)C1` [Compound 95]: the concentration for a half-maximal effect (EC50) in assay [2] was above 10 µM.

In the case of `C[C@@H]1CC[C@@H](C(C)(C)O)[C@H](O)C1` [PMD38], the concentration for a half-maximal effect (EC50) in assay [1] is 31 ± 1.1 µM.

With `CC(C)[C@@H]1CC[C@@H](C)C[C@H]1C(=O)Nc1ccc(OCCN(C)C)cc1` [Compound 11], in assay [2], the Emax is above 75% and the concentration giving a half-maximal response (EC50) was below 0.5 µM.

As to `CC(C)[C@@H]1CC[C@@H](C)C[C@H]1C(=O)Nc1ccc(CO)cc1` [Compound 15], in assay [2], the Emax is above 75% and the concentration for a half-maximal effect (EC50) was below 0.1 µM.

`CC(C)[C@@H]1CC[C@@H](C)C[C@H]1C(=O)NC12CC(CCO)(C1)C2` [Compound 45]: in assay [2], the Emax was above 100% and the EC50 is below 1 µM.

As to `COC12CCC(NC(=O)[C@H]3CCC[C@@H](NC(C)=O)C3)(CC1)CC2` [Compound 173], the half-maximal effective concentration (EC50) in assay [2] is above 10 µM.

As to `CC(C)[C@@H]1CC[C@@H](C)C[C@H]1C(=O)NC1CN(CC(=O)OC(C)(C)C)C1` [Compound 30], the EC50 in assay [2] is above 10 µM.

Take `CC(C)[C@@H]1CC[C@@H](C)C[C@H]1C(=O)Nc1ccnc(CN(C)C)c1` [Compound 77]: in assay [2], the Emax was above 50% and the concentration for a half-maximal effect (EC50) is below 5 µM.

With `CC1CCC(C(C)C)C(OCC(O)CO)C1` (centres unmarked) [cooling agent 10], in assay [1], the EC50 is 6 ± 2.2 µM.

`COc1ncc(NC(=O)[C@@H]2C[C@H](C)CC[C@H]2C(C)C)cc1F` [Compound 82]: in assay [2], the Emax was above 75% and the EC50 is below 0.5 µM.

`CC(C)[C@@H]1CC[C@@H](C)C[C@H]1C(=O)Nc1ccncn1` [Compound 83]: in assay [2], the Emax was above 75% and the 50% effective concentration (EC50) was below 5 µM.

Regarding `CC(C)[C@@H]1CC[C@@H](C)C[C@H]1C(=O)Nc1cccc(C2(O)COC2)c1` [Compound 23], in assay [2], the Emax is above 75% and the EC50 was below 0.5 µM.

For `CC(C)[C@@H]1CC[C@@H](C)C[C@H]1C(=O)Nc1ccc(CCO)cc1` [Compound 17], in assay [2], the Emax is above 75% and the EC50 is below 0.1 µM.

On to `CC(C)[C@@H]1CC[C@@H](C)C[C@H]1C(=O)NCC1COC1` [Compound 56], for which, in assay [2], the Emax is above 75% and the EC50 was below 10 µM.

In the case of `CC(C)[C@@H]1CC[C@@H](C)C[C@H]1C(=O)NC12CC(C(=O)O)(C1)C2` [Compound 53], the EC50 in assay [2] was above 10 µM.

Consider `CC(C)[C@@H]1CC[C@@H](C)C[C@H]1C(=O)Nc1ccc2c(c1)B(O)OC2` [Compound 4], for which, in assay [2], the Emax was above 50% and the EC50 was below 0.1 µM.

In the case of `C=C(C)[C@@H]1CC[C@@H](C)C[C@H]1O` [Coolact P], the concentration for a half-maximal effect (EC50) in assay [1] was 66 ± 20 µM.

Regarding `CC(C)[C@@H]1CC[C@@H](C)C[C@H]1C(=O)Nc1cc(C(=O)O)ns1` [Compound 64], the EC50 in assay [2] is above 10 µM.

Regarding `CC(C)[C@@H]1CC[C@@H](C)C[C@H]1C(=O)Nc1cncc(Cl)c1` [Compound 80], in assay [2], the Emax is above 75% and the EC50 was below 1 µM.

Regarding `CC(C)[C@@H]1CC[C@@H](C)C[C@H]1C(=O)NC(=N)N` [Compound 69], the Emax in assay [2] is above 75%. Besides, in assay [2] (no unit printed in this row), the EC50 was below 10 µM.

For the compound `CC12CCC(CC1)C(C)(C)O2` [eucalyptol], in assay [1], the 50% effective concentration (EC50) was 7700 ± 2000 µM.

As to `CC(C)[C@@H]1CC[C@@H](C)C[C@H]1C(=O)NC1CCC(S(C)(=O)=O)C1` (some centres unmarked) [Compound 106], in assay [2], the Emax was above 50% and the half-maximal effective concentration (EC50) was below 10 µM.

`CCOC(=O)CC1(c2ccc(NC(=O)[C@@H]3C[C@H](C)CC[C@H]3C(C)C)cc2)COC1` [Compound 24]: in assay [2], the Emax is above 100% and the EC50 was below 0.5 µM.

As for `CC(C)[C@@H]1CC[C@@H](C)C[C@H]1C(=O)Nc1ccc(N2CCN(C)CC2)cc1` [Compound 2], in assay [2], the Emax was above 100% and the EC50 is below 0.5 µM.

For the compound `COCC12CC(NC(=O)[C@@H]3C[C@H](C)CC[C@H]3C(C)C)(C1)C2` [Compound 35], in assay [2], the Emax is above 75% and the half-maximal effective concentration (EC50) was below 0.1 µM.

As to `COc1ccc(NC(=O)[C@@H]2C[C@H](C)CC[C@H]2C(C)C)nc1Cl` [Compound 75], in assay [2], the Emax is above 75% and the EC50 is below 5 µM.

For the compound `CC1CCC(C(C)C)C2(C1)OCC(CO)O2` (centres unmarked) [frescolatMAG], the EC50 in assay [1] is 4.8 ± 1.1 µM.

In the case of `COC(=O)C12CC(NC(=O)[C@@H]3C[C@H](C)CC[C@H]3C(C)C)(C1)C2` [Compound 31], in assay [2], the Emax is above 75% and the EC50 is below 0.1 µM.

As to `CC(CC=O)CCCC(C)(C)O` (centres unmarked) [hydroxycitronellal], the half-maximal effective concentration (EC50) in assay [1] was 19600 ± 2200 µM.

As for `CC(C)[C@@H]1CC[C@@H](C)C[C@H]1C(=O)N[C@H]1CC[C@H](N)C1` [Compound 34], in assay [2], the Emax was above 75% and the concentration giving a half-maximal response (EC50) was below 1 µM.

In the case of `CC(C)[C@@H]1CC[C@@H](C)C[C@H]1C(=O)Nc1ccccc1CN(C)C` [Compound 65], in assay [2], the Emax was above 50% and the concentration for a half-maximal effect (EC50) was below 1 µM.

As for `COc1ccc(NC(=O)[C@H]2CCC[C@@H](O)C2)cc1` [Compound 177], in assay [2], the EC50 is above 10 µM.

For the compound `CON(C)C(=O)C12CC(NC(=O)[C@@H]3C[C@H](C)CC[C@H]3C(C)C)(C1)C2` [Compound 49], in assay [2], the Emax is above 75% and the EC50 was below 0.5 µM.

With `CNC(=O)c1cc(OC)ccc1NC(=O)[C@@H]1C[C@H](C)CC[C@H]1C(C)C` [Compound 61], in assay [2], the Emax is above 75% and the EC50 is below 0.1 µM.

Turning to `CC(C)[C@@H]1CC[C@@H](C)C[C@H]1C(=O)Nc1cnn(CCO)c1` [Compound 70], in assay [2], the Emax was above 75% and the EC50 was below 1 µM.

On to `CC(C)[C@@H]1CC[C@@H](C)C[C@H]1C(=O)NC1CC2(COC2)C1` [Compound 32], for which, in assay [2], the Emax was above 75% and the EC50 was below 2 µM.

Turning to `CC(C)[C@@H]1CC[C@@H](C)C[C@H]1C(=O)Nc1ccc(C2CC2)cc1` [Compound 6], in assay [2], the Emax is above 75% and the concentration for a half-maximal effect (EC50) was below 0.1 µM.

With `CC(C)[C@@H]1CC[C@@H](C)C[C@H]1C(=O)NC1COC1` [Compound 38], in assay [2], the Emax was above 75% and the 50% effective concentration (EC50) is below 0.5 µM.

Take `CC(C)[C@@H]1CC[C@@H](C)C[C@H]1C(=O)NC12CC(CO)(C1)C2` [Compound 33]: in assay [2], the Emax is above 100% and the 50% effective concentration (EC50) is below 1 µM.

Consider `COc1ccc(NC(=O)[C@@H]2C[C@H](C)CC[C@H]2C(C)C)cc1` [Compound 1], for which, in assay [2], the “Percent Agonist” value is listed as 100% and the concentration for a half-maximal effect (EC50) was determined as 0.024 µM.

Consider `COc1ccc(NC(=O)c2cccc(C(F)(F)F)c2)cc1` [Compound 174], for which the concentration giving a half-maximal response (EC50) in assay [2] was above 10 µM.

On to `COCCOCCOc1ccc(NC(=O)[C@@H]2C[C@H](C)CC[C@H]2C(C)C)cc1` [Compound 5], for which, in assay [2], the Emax was above 75% and the half-maximal effective concentration (EC50) is below 0.5 µM.

On to `COC(=O)c1cc(NC(=O)[C@@H]2C[C@H](C)CC[C@H]2C(C)C)sn1` [Compound 62], for which, in assay [2], the Emax was above 75% and the concentration for a half-maximal effect (EC50) is below 0.5 µM.

Regarding `CC(O)C(=O)O[C@@H]1C[C@H](C)CC[C@H]1C(C)C` (some centres unmarked) [FrescolatML], the EC50 in assay [1] was 3.3 ± 1.5 µM.

`CC(C)[C@@H]1CC[C@@H](C)C[C@H]1C(=O)NCC1(C#N)CC1` [Compound 93]: in assay [2], the Emax is above 75% and the concentration for a half-maximal effect (EC50) is below 10 µM.

Turning to `CC(C)[C@@H]1CC[C@@H](C)C[C@H]1C(=O)NC1CC2(CCCO2)C1` (some centres unmarked) [Compound 44], in assay [2], the Emax is above 75% and the EC50 is below 1 µM.

`CC(C)[C@@H]1CC[C@@H](C)C[C@H]1C(=O)NC12CC(F)(C1)C2` [Compound 29]: in assay [2], the Emax is above 100% and the EC50 is below 1 µM.

These data come from patent US20240360075A1, “N-SUBSTITUTED C6 CYCLYL CARBOXAMIDE COMPOUNDS AND USES THEREOF” (ALCON INC., priority 2023, published 2024).
